Structures are written as SMILES. Like-named read-outs stand apart in the source and are kept apart here.

The test system of assay [1] is Calpain activity in SH-SY5Y cells (SBDP-150). Briefly: SH-SY5Y Spectrin western blot assay (SBDP-150 breakdown product, A23187-induced). The format is cell-based. To be noted: Homo sapiens, SH-SY5Y cells, read-out: SH-SY5Y Spectrin IC50. For orientation: Immunoblotting shows a protein as a band on a membrane.
Assay [2] deals with T1, Human Calpain 9/NS1 (Homo sapiens, UniProt O14815).
T1 sequence (O14815 1-690): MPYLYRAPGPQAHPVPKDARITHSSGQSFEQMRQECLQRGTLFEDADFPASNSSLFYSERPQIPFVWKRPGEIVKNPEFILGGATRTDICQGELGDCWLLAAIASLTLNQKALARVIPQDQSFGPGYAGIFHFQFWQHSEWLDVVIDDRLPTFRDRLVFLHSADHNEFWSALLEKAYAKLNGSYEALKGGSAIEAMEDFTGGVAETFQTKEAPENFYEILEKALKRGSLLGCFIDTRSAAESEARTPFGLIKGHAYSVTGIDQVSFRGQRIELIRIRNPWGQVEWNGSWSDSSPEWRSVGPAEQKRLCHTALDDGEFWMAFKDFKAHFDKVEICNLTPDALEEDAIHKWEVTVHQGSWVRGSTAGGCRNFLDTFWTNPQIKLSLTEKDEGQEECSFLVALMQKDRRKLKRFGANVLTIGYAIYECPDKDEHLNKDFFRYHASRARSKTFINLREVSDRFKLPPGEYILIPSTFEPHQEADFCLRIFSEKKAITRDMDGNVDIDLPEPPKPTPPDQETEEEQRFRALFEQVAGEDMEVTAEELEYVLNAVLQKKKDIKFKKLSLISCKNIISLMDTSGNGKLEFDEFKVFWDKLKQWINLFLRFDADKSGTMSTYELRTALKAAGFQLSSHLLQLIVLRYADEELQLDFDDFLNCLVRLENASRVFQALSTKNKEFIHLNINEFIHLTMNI
T1 sequence (P04632 1-268 partner): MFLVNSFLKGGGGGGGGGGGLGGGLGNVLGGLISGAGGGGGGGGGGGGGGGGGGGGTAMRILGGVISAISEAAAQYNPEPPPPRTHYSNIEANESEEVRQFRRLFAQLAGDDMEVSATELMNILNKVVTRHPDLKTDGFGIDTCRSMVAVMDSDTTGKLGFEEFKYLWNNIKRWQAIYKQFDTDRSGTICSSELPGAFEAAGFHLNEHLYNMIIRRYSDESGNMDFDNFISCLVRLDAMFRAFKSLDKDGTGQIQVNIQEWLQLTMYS
Briefly: Calpain inhibition continuous fluorescence (FRET) assay, Human Calpain 9/NS1. The format is biochemical. Particulars: read-out: Human Calpain 9/NS1 IC50. The gist of the method: (§1)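 Fluorescence increase from the cleaved 5-FAM/QXL 520 substrate, read at 490/520 nm, gave activity. Calcium was supplied with the substrate to activate the enzyme in situ after a 25C enzyme-inhibitor preincubation, and IC50s were fit from initial slopes.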

For assay [3], the system named is Calpain activity in SH-SY5Y cells. Briefly: SH-SY5Y + AMC fluorescence assay (Suc-LLVY-AMC substrate). The format is cell-based. To be noted: read-out: SH-SY5Y + AMC IC50.
Assay [4] concerns the target T2, Human Calpain 1/NS1 (Homo sapiens, UniProt P07384).
T2 sequence (P07384 1-714): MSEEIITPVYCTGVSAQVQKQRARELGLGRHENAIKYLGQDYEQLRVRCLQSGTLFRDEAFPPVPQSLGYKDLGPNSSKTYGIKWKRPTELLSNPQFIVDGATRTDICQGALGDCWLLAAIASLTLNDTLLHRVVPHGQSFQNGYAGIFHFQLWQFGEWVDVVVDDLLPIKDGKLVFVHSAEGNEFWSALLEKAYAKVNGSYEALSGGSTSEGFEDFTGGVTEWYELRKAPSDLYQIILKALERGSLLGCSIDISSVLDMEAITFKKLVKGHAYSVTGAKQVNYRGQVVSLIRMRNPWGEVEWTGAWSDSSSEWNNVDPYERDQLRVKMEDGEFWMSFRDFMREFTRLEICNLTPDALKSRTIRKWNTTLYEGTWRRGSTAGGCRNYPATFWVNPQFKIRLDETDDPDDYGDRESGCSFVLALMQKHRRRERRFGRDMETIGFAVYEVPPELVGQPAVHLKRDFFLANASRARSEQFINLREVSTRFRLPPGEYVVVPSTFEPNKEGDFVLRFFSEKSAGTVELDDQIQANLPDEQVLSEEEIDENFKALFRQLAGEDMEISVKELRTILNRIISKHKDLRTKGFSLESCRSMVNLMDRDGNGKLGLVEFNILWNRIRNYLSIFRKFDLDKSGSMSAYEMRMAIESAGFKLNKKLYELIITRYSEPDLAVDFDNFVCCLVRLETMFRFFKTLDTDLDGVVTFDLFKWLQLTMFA
T2 sequence (P04632 1-268 partner): T1 sequence (P04632 1-268 partner)
Briefly: Calpain inhibition continuous fluorescence (FRET) assay, Human Calpain 1/NS1. The assay is classed as biochemical. Particulars: read-out: Human Calpain 1/NS1 IC50. A digest of the protocol:
as §1

The target in assay [5] is T3, Human Calpain 2/NS1 (Homo sapiens, UniProt P17655).
T3 sequence (P17655 1-700): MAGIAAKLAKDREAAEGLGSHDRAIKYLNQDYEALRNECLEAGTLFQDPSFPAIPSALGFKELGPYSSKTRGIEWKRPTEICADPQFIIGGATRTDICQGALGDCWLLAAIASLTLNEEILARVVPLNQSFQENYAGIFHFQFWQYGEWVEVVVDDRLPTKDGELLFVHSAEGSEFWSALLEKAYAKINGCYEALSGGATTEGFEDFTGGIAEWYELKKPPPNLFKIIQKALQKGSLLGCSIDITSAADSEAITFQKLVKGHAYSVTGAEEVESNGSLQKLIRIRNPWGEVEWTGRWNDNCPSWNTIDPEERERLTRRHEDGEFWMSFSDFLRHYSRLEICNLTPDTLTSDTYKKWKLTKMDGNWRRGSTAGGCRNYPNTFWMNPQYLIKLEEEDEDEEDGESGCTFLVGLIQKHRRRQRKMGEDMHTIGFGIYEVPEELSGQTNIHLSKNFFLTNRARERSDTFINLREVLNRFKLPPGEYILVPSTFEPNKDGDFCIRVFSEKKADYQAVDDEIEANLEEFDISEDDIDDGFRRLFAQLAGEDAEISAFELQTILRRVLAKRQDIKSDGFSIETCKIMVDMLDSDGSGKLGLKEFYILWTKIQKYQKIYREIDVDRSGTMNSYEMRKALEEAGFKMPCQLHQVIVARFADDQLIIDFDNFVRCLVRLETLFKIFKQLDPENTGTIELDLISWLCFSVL
T3 sequence (P04632 1-268 partner): T1 sequence (P04632 1-268 partner)
Briefly: Calpain inhibition continuous fluorescence (FRET) assay, Human Calpain 2/NS1. The assay is classed as biochemical. Particulars: read-out: Human Calpain 2/NS1 IC50. A digest of the protocol: as §1

The mark [6] stands for this setting: A23187-induced SBDP-150, western blot.
Where [7] appears, read: Column D, A23187-induced SBDP-150.

Turning to `Cc1c(F)cccc1-c1nsnc1C(=O)NC(Cc1ccccc1)C(=O)C(N)=O` (stereo not drawn) [Compound 375, N-(4-amino-3,4-dioxo-1-phenylbutan-2-yl)-4-(3-fluoro-2-methylphenyl)-1,2,5-thiadiazole-3-carboxamide], the IC50 in assay [1] (setting [6]) was less than 10 µM; in assay [2], less than 3 µM; in assay [3], less than 10 µM; in assay [4], less than 3 µM; in assay [5], less than 3 µM.

For `C#Cc1nccc(-n2nc(C)cc2C(=O)NC(Cc2ccccc2)C(=O)C(N)=O)n1` (stereo not drawn) [Compound 432, N-(4-amino-3,4-dioxo-1-phenylbutan-2-yl)-1-(2-ethynylpyrimidin-4-yl)-3-methyl-1H-pyrazole-5-carboxamide], the IC50 in assay [1] (setting [6]) is less than 10 µM; in assay [2], less than 3 µM; in assay [3] it was less than 10 µM; in assay [4] it was less than 3 µM; in assay [5], less than 3 µM.

For the compound `Cc1nc(-c2ccccc2)c(C(=O)N[C@@H](Cc2ccc(F)cc2)C(=O)C(N)=O)o1` [Compound 107, (S)—N-(4-amino-1-(4-fluorophenyl)-3,4-dioxobutan-2-yl)-2-methyl-4-phenyloxazole-5-carboxamide], the IC50 was less than 10 µM in assay [1] (setting [7]); less than 3 µM in assay [2] (Column C); less than 10 µM in assay [3] (Column E); less than 3 µM in assay [4] (Column A); less than 3 µM in assay [5] (Column B).

In the case of `CC(C)n1cc(C(=O)NC(Cc2ccccc2)C(=O)C(N)=O)c(-c2ccc(F)cc2)n1` (stereo not drawn) [Compound 474, N-(4-amino-3,4-dioxo-1-phenylbutan-2-yl)-3-(4-fluorophenyl)-1-isopropyl-1H-pyrazole-4-carboxamide], the IC50 in assay [1] (setting [6]) was 10 to 25 µM; in assay [2], less than 3 µM; in assay [3], 10 to 25 µM; in assay [4] it was less than 3 µM; in assay [5], less than 3 µM.

On to `NC(=O)C(=O)C(Cc1ccccc1)NC(=O)c1cn(C(F)F)nc1-c1cccc2c1OCCO2` (stereo not drawn) [Compound 555], for which the IC50 in assay [1] (setting [6]) was more than 25 µM; in assay [2], less than 3 µM; in assay [3] it was less than 10 µM; in assay [4], less than 3 µM; in assay [5], less than 3 µM.

Take `Cn1cc(C(=O)NC(Cc2ccccc2)C(=O)C(N)=O)c(-c2ccco2)n1` (stereo not drawn) [Compound 500, N-(4-amino-3,4-dioxo-1-phenylbutan-2-yl)-3-(furan-2-yl)-1-methyl-1H-pyrazole-4-carboxamide]: the IC50 in assay [1] (setting [6]) was 10 to 25 µM; in assay [2], less than 3 µM; in assay [3], less than 10 µM; in assay [4], less than 3 µM; in assay [5] it was less than 3 µM.

In the case of `Cc1cc(C(=O)N[C@@H](Cc2ccccc2)C(=O)C(N)=O)n(-c2ccnc(C)n2)n1` [Compound 244, (S)—N-(4-amino-3,4-dioxo-1-phenylbutan-2-yl)-3-methyl-1-(2-methylpyrimidin-4-yl)-1H-pyrazole-5-carboxamide], the IC50 in assay [1] (setting [7]) was more than 25 µM; in assay [2] (Column C), less than 3 µM; in assay [3] (Column E), less than 10 µM; in assay [4] (Column A), less than 3 µM; in assay [5] (Column B), less than 3 µM.

With `Cc1cc(C(=O)NC(Cc2ccccc2)C(=O)C(=O)NC2CC2)n(-c2cnccn2)n1` (stereo not drawn) [Compound 454, N-(4-(cyclopropylamino)-3,4-dioxo-1-phenylbutan-2-yl)-3-methyl-1-(pyrazin-2-yl)-1H-pyrazole-5-carboxamide], the IC50 is 10 to 25 µM in assay [1] (setting [6]); 3 to 10 µM in assay [2]; less than 10 µM in assay [3]; less than 3 µM in assay [4]; less than 3 µM in assay [5].

In the case of `NC(=O)C(=O)C(Cc1ccccc1)NC(=O)c1cn(C(F)F)nc1-c1ccnc2ccccc12` (stereo not drawn) [Compound 596, N-(4-amino-3,4-dioxo-1-phenylbutan-2-yl)-1-(difluoromethyl)-3-(quinolin-4-yl)-1H-pyrazole-4-carboxamide], the IC50 was 10 to 25 µM in assay [1] (setting [6]); less than 3 µM in assay [2]; less than 10 µM in assay [3]; less than 3 µM in assay [4]; less than 3 µM in assay [5].

On to `CC(C)n1cc(C(=O)N[C@@H](Cc2ccccc2)C(=O)C(N)=O)c(-c2ccccc2)n1` [Compound 242, (S)—N-(4-amino-3,4-dioxo-1-phenylbutan-2-yl)-1-isopropyl-3-phenyl-1H-pyrazole-4-carboxamide], for which the IC50 is more than 25 µM in assay [1] (setting [7]); less than 3 µM in assay [2] (Column C); less than 10 µM in assay [3] (Column E); less than 3 µM in assay [4] (Column A); less than 3 µM in assay [5] (Column B).

On to `Cc1cc(C(=O)NC(Cc2ccccc2)C(=O)C(N)=O)n(-c2ccc(C(F)(F)F)cn2)n1` (stereo not drawn) [Compound 445, N-(4-amino-3,4-dioxo-1-phenylbutan-2-yl)-3-methyl-1-(5-(trifluoromethyl)pyridin-2-yl)-1H-pyrazole-5-carboxamide], for which the IC50 in assay [1] (setting [6]) is less than 10 µM; in assay [2], less than 3 µM; in assay [3], more than 25 µM; in assay [4] it was less than 3 µM; in assay [5], less than 3 µM.

`Cc1cc(C(=O)N[C@@H](Cc2ccccc2)C(=O)C(N)=O)n(-c2cccc(-c3ccc(F)cc3)c2)n1` [Compound 103, (S)—N-(4-amino-3,4-dioxo-1-phenylbutan-2-yl)-1-(4′-fluoro-[1,1′-biphenyl]-3-yl)-3-methyl-1H-pyrazole-5-carboxamide]: the IC50 in assay [1] (setting [7]) was more than 25 µM; in assay [2] (Column C), less than 3 µM; in assay [3] (Column E), more than 25 µM; in assay [4] (Column A), less than 3 µM; in assay [5] (Column B), less than 3 µM.

(Values after patent US11339130B1 (Blade Therapeutics, Inc., priority 2016, dated 2022).)
